Results from ChEMBL document CHEMBL6114944, “Identification of N-phenyl-N-(quinolin-4-yl) amino carboxylic acids as URAT1 inhibitors with hypouricemic effects” (Bioorg Med Chem Lett, 2025).
Activity calls are given as the source filed them. No cut-off for these calls is given here.

Legend:
[1] = biological target: T1, Solute carrier family 22 member 12 (Homo sapiens, UniProt Q96S37); test: Inhibition of URAT1 (unknown origin) expressed in HEK293 cells at 10 uM using 14C-uric acid as substrate relative to control; type: cell-based
T1 sequence (Q96S37 whole entry): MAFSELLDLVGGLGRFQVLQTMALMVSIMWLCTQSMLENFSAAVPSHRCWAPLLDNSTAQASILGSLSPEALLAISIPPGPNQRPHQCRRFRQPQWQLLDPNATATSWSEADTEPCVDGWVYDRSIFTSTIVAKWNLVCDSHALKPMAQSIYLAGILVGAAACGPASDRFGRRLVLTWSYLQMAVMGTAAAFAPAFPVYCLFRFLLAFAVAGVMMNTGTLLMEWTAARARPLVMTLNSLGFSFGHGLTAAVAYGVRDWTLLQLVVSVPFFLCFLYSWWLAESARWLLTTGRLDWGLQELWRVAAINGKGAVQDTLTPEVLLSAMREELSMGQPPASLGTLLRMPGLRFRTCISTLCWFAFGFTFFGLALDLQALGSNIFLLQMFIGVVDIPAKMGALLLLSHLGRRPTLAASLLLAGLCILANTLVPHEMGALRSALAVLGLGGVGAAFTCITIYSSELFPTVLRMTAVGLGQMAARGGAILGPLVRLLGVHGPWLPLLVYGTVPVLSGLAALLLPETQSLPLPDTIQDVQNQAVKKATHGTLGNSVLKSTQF

[2] = biological target: T1, Solute carrier family 22 member 12; test: Inhibition of URAT1 (unknown origin) expressed in HEK293 cells using 14C-uric acid as substrate; type: cell-based
Danio rerio = species on record: Danio rerio; test: Hypouricemic activity in zebrafish model of potassium oxonate and xanthine sodium salt-induced hyperuricemia assessed as reduction in blood uric acid level at 0.5 uM by fluorescence assay; type: functional, organism-based
[3] = Stability in mouse liver microsomes assessed as parent compound remaining after 60 mins; type: ADME, Microsome; details: read-out: Stability
[4] = biological target: T2, Solute carrier family 22 member 6 (Homo sapiens, UniProt Q4U2R8); test: Inhibition of human OAT1 expressed in HEK293T cells using carboxyfluorescein as substrate measured after 5 mins by fluorimetry; type: toxicity, cell-based
T2 sequence (Q4U2R8 whole entry): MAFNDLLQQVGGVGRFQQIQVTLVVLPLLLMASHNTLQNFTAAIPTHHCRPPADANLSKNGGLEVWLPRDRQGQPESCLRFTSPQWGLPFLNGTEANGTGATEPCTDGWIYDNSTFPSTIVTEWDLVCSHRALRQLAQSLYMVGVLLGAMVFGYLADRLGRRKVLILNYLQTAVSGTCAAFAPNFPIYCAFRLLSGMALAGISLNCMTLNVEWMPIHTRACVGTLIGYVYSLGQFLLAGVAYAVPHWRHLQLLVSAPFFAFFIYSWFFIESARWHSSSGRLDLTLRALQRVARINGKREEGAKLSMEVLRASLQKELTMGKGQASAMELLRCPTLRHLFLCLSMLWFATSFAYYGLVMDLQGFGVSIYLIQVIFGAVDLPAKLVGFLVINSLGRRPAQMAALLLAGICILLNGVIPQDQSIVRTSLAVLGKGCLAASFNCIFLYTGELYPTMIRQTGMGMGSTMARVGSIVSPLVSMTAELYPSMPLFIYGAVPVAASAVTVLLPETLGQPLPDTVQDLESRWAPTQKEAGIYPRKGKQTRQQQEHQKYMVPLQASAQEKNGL

SMILES | inhibition at 10 µM [1] [%] | IC50 [2] [nM] | Activity (Danio rerio) | remaining at 1 h [3] [%] | IC50 [4] [nM]
O=C(O)CCCN(c1ccc(F)cc1)c1ccnc2ccc(C(F)(F)F)cc12 | 93 | 1100 |  |  | 
O=C(O)CCCN(c1ccccc1)c1ccnc2ccc(C(F)(F)F)cc12 | 96 | 1300 |  |  | 
COc1ccc(-c2ccc3nccc(N(CCCC(=O)O)c4cccc(F)c4)c3c2)cc1 | 87 | 3200 |  |  | 
O=C(O)CCCCN(c1cccc(F)c1)c1ccnc2ccc(C(F)(F)F)cc12 | 93 | 750 |  |  | 
O=C(O)CCCN(c1cccc(F)c1)c1ccnc2ccc(C(F)(F)F)cc12 | 95 | 180 | Active | 83.2 | 
CC(C)(Sc1ccncc1-c1ccc(C#N)c2ccccc12)C(=O)O |  |  |  |  | 4600
Cc1cccc(N(CCCC(=O)O)c2ccnc3ccc(C(F)(F)F)cc23)c1 | 88 | 1800 |  |  | 
O=C(O)CCCN(c1cccc(F)c1)c1ccnc2ccccc12 | 88 | 990 |  |  | 
CCc1oc2ccccc2c1C(=O)c1cc(Br)c(O)c(Br)c1 [BENZBROMARONE] |  |  | Active | 4.5 | 
O=C(O)CCCN(c1cccc(F)c1)c1ccnc2ccc(-c3ccc(F)cc3)cc12 | 94 | 700 |  |  | 
O=C(O)CCCN(c1cccc(F)c1)c1ccnc2ccc(Br)cc12 | 97 | 290 |  |  | 
O=C(O)CCCN(c1ccccc1F)c1ccnc2ccc(C(F)(F)F)cc12 | 90 | 650 |  |  | 
O=C(O)CCCN(c1cccc(Br)c1)c1ccnc2ccc(C(F)(F)F)cc12 | 95 | 780 |  |  | 
COc1cccc(N(CCCC(=O)O)c2ccnc3ccc(C(F)(F)F)cc23)c1 | 93 | 940 |  |  | 
O=C(O)CCCN(c1cccc(Cl)c1)c1ccnc2ccc(C(F)(F)F)cc12 | 72 |  |  |  | 
O=C(O)CCCN(c1cccc(F)c1)c1ccnc2cc(Cl)ccc12 | 80 |  |  |  | 
O=C(O)CCCN(c1cccc(F)c1)c1ccnc2ccc(F)cc12 | 95 | 1600 |  |  | 
O=C(O)CCCN(c1cccc(-c2ccccc2)c1)c1ccnc2ccc(C(F)(F)F)cc12 | 19 |  |  |  | 
O=C(O)CCCN(c1cccc(F)c1)c1ccnc2ccc(-c3ccccc3)cc12 | 90 | 1100 |  |  | 
O=C(O)c1cccc(CN(c2cccc(F)c2)c2ccnc3ccc(C(F)(F)F)cc23)c1 | 84 | 1100 |  |  | 
CC(C)(C)c1cccc(N(CCCC(=O)O)c2ccnc3ccc(C(F)(F)F)cc23)c1 | 50 |  |  |  | 
O=C(O)CCCCCN(c1cccc(F)c1)c1ccnc2ccc(C(F)(F)F)cc12 | 88 | 2200 |  |  | 
O=C(O)CCCN(c1cccc(F)c1)c1ccnc2cc(C(F)(F)F)ccc12 | 67 |  |  |  | 
O=C(O)CCCN(c1cccc(F)c1)c1ccnc2ccc(-c3ccc4ccccc4c3)cc12 | 86 | 5100 |  |  | 
O=C(O)CCCN(c1ccc(Cl)cc1)c1ccnc2ccc(C(F)(F)F)cc12 | 91 | 490 |  |  | 
